Results as given in patent US6525001B1, “Substituted pyrimidine and pyridine herbicides” (Mid-American Commercialization Corporation, priority 1997, dated 2003).

Columns and labels:
Type in all cases: in vivo
Settings in all cases: PREEMERGENCE
[1] = test system: wild mustard (Sinapis arvensis); test: Test D; parameters: key: 0 is no effect; 100 is complete control
[2] = test system: green foxtail (Setaria viridis); test: Test D; parameters: key: 0 is no effect; 100 is complete control
[3] = test system: common poppy (Papaver rhoeas); test: Test D; parameters: key: 0 is no effect; 100 is complete control
[4] = test system: johnson grass (Sorghum halepense); test: Test E pre-/postemergence/post directed; parameters: key: 0 is no effect; 100 is complete control
Method in brief: (§1)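 Greenhouse pots; compound in non-phytotoxic solvent with surfactant, sprayed preemergence within one day of planting, postemergence at two to four leaf stage (three to twenty cm), or post directed to plant base and soil. Visual injury rated 13 to 21 days after application, 0 (none) to 100 (complete control).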

[5] = test system: alexandergrass (Brachiaria plantaginea); test: Test E pre-/postemergence/post directed; parameters: key: 0 is no effect; 100 is complete control
Method in brief: as §1

[6] = test system: leafy spurge (Euphorbia esula); test: Test E pre-/postemergence/post directed; parameters: key: 0 is no effect; 100 is complete control
Method in brief: as §1

[7] = test system: pitted morningglory (Ipomoea lacunosa); test: Test E pre-/postemergence/post directed; parameters: key: 0 is no effect; 100 is complete control
Method in brief: as §1

[8] = test system: common chickweed (Stellaria media); test: Test E pre-/postemergence/post directed; parameters: key: 0 is no effect; 100 is complete control
Method in brief: as §1

B. signalgrass = test: Test E pre-/postemergence/post directed; parameters: key: 0 is no effect; 100 is complete control
Method in brief: as §1

[9] = test system: annual bluegrass (Poa annua); test: Test E pre-/postemergence/post directed; parameters: key: 0 is no effect; 100 is complete control
Method in brief: as §1

[10] = test system: green foxtail (Setaria viridis); test: Test E pre-/postemergence/post directed; parameters: key: 0 is no effect; 100 is complete control
Method in brief: as §1

[11] = test system: sandbur (Cenchrus echinatus); test: Test E pre-/postemergence/post directed; parameters: key: 0 is no effect; 100 is complete control
Method in brief: as §1

[12] = test system: quackgrass (Agropyron repens); test: Test E pre-/postemergence/post directed; parameters: key: 0 is no effect; 100 is complete control
Method in brief: as §1

[13] = test system: arrowleaf sida (Sida rhombifolia); test: Test E pre-/postemergence/post directed; parameters: key: 0 is no effect; 100 is complete control
Method in brief: as §1

[14] = test system: Spanishneedles (Bidens bipinnata); test: Test E pre-/postemergence/post directed; parameters: key: 0 is no effect; 100 is complete control
Method in brief: as §1

[15] = test system: giant foxtail (Setaria faberii); test: Test C; parameters: key: 0 was no effect; 100 was complete control
[16] = test system: surinam grass (Brachiaria decumbens); test: Test C; parameters: key: 0 was no effect; 100 was complete control
[17] = test system: cotton (Gossypium hirsutum); test: Test C; parameters: key: 0 was no effect; 100 was complete control
[18] = test system: sunflower (Helianthus annuus); test: Test D
corn (Zea mays) = test: Test C; parameters: key: 0 was no effect; 100 was complete control
[19] = test system: sugar beet (Beta vulgaris); test: Test D; parameters: key: 0 is no effect; 100 is complete control

## Cc1cnc(-c2ccc(C(F)(F)F)cc2)nc1Cc1cccc(C(F)(F)F)c1 [Example 1, 5-methyl-2-[4-(trifluoromethyl)phenyl]-4-[[3-(trifluoromethyl)phenyl]methyl]pyrimidine]
[1]; Rate 31 g/ha
  Plant response rating, Wild mustard: 60
[1]; Rate 62 g/ha
  Plant response rating, Wild mustard: 100
[1]; Rate 125 g/ha
  Plant response rating, Wild mustard: 100
[1]; Rate 250 g/ha
  Plant response rating, Wild mustard: 98
[2]; Rate 31 g/ha
  Plant response rating, Green foxtail: 60
[2]; Rate 62 g/ha
  Plant response rating, Green foxtail: 100
[2]; Rate 125 g/ha
  Plant response rating, Green foxtail: 100
[2]; Rate 250 g/ha
  Plant response rating, Green foxtail: 100
[3]; Rate 31 g/ha
  Plant response rating, Common poppy: 80
[3]; Rate 62 g/ha
  Plant response rating, Common poppy: 100
[3]; Rate 125 g/ha
  Plant response rating, Common poppy: 100
[3]; Rate 250 g/ha
  Plant response rating, Common poppy: 100
[4]; Rate 250 g/ha
  Plant response rating, Johnsongrass: 100
[5]; Rate 250 g/ha
  Plant response rating, Alexandergrass: 100
[6]; Rate 32 g/ha
  Plant response rating, Leafy spurge: 75
[6]; Rate 64 g/ha
  Plant response rating, Leafy spurge: 95
[6]; Rate 125 g/ha
  Plant response rating, Leafy spurge: 100
[7]; Rate 125 g/ha
  Plant response rating, P. morninglory: 100
[7]; Rate 250 g/ha
  Plant response rating, P. morninglory: 100
[8]; Rate 32 g/ha
  Plant response rating, Com. chickweed: 30
[8]; Rate 64 g/ha
  Plant response rating, Com. chickweed: 95
[8]; Rate 125 g/ha
  Plant response rating, Com. chickweed: 100
B. signalgrass; Rate 32 g/ha
  Plant response rating, B. signalgrass: 20
B. signalgrass; Rate 64 g/ha
  Plant response rating, B. signalgrass: 90
B. signalgrass; Rate 125 g/ha
  Plant response rating, B. signalgrass: 100
[9]; Rate 32 g/ha
  Plant response rating, A. bluegrass: 90
[9]; Rate 64 g/ha
  Plant response rating, A. bluegrass: 100
[9]; Rate 125 g/ha
  Plant response rating, A. bluegrass: 100
[10]; Rate 32 g/ha
  Plant response rating, Green foxtail: 100
[10]; Rate 64 g/ha
  Plant response rating, Green foxtail: 100
[10]; Rate 125 g/ha
  Plant response rating, Green foxtail: 100
[11]; Rate 250 g/ha
  Plant response rating, Sandbur: 100
[12]; Rate 32 g/ha
  Plant response rating, Quackgrass: 65
[12]; Rate 64 g/ha
  Plant response rating, Quackgrass: 80
[12]; Rate 125 g/ha
  Plant response rating, Quackgrass: 100
[13]; Rate 32 g/ha
  Plant response rating, Arrowleaf sida: 98
[13]; Rate 64 g/ha
  Plant response rating, Arrowleaf sida: 98
[13]; Rate 125 g/ha
  Plant response rating, Arrowleaf sida: 100
[14]; Rate 250 g/ha
  Plant response rating, Spanishneedles: 100
[15]; Rate 35 g/ha
  Plant response rating, Giant foxtail: 100
[15]; Rate 70 g/ha
  Plant response rating, Giant foxtail: 100
[15]; Rate 140 g/ha
  Plant response rating, Giant foxtail: 100
[16]; Rate 35 g/ha
  Plant response rating, Surinam grass: 50
[16]; Rate 70 g/ha
  Plant response rating, Surinam grass: 90
[16]; Rate 140 g/ha
  Plant response rating, Surinam grass: 95
[17]; Rate 35 g/ha
  Plant response rating, Cotton: 30
[17]; Rate 70 g/ha
  Plant response rating, Cotton: 60
[17]; Rate 140 g/ha
  Plant response rating, Cotton: 100
[18]; Rate 31 g/ha
  Plant response rating, Sunflower: 10
[18]; Rate 62 g/ha
  Plant response rating, Sunflower: 35
[18]; Rate 125 g/ha
  Plant response rating, Sunflower: 50
[18]; Rate 250 g/ha
  Plant response rating, Sunflower: 30
Corn (Zea mays); Rate 35 g/ha
  Plant response rating, Corn: 5
Corn (Zea mays); Rate 70 g/ha
  Plant response rating, Corn: 10
Corn (Zea mays); Rate 140 g/ha
  Plant response rating, Corn: 10
[19]; Rate 31 g/ha
  Plant response rating, Sugar beet: 30
[19]; Rate 62 g/ha
  Plant response rating, Sugar beet: 100
[19]; Rate 125 g/ha
  Plant response rating, Sugar beet: 85
[19]; Rate 250 g/ha
  Plant response rating, Sugar beet: 100

## Cc1cnc(-n2ccc(C(F)(F)F)n2)nc1Cc1cccc(C(F)(F)F)c1 [Example 2, 5-methyl-4-[[3-(trifluoromethyl)phenyl]methyl]-2-[3-(trifluoromethyl)-1H-pyrazol-1-yl]pyrimidine]
[4]; Rate 250 g/ha
  Plant response rating, Johnsongrass: 100
[4]; Rate 500 g/ha
  Plant response rating, Johnsongrass: 100
[5]; Rate 125 g/ha
  Plant response rating, Alexandergrass: 100
[5]; Rate 250 g/ha
  Plant response rating, Alexandergrass: 100
[5]; Rate 500 g/ha
  Plant response rating, Alexandergrass: 100
[6]; Rate 32 g/ha
  Plant response rating, Leafy spurge: 60
[6]; Rate 64 g/ha
  Plant response rating, Leafy spurge: 98
[6]; Rate 125 g/ha
  Plant response rating, Leafy spurge: 100
[6]; Rate 250 g/ha
  Plant response rating, Leafy spurge: 100
[7]; Rate 32 g/ha
  Plant response rating, P. morninglory: 100
[7]; Rate 64 g/ha
  Plant response rating, P. morninglory: 100
[7]; Rate 125 g/ha
  Plant response rating, P. morninglory: 100
[7]; Rate 250 g/ha
  Plant response rating, P. morninglory: 100
[7]; Rate 500 g/ha
  Plant response rating, P. morninglory: 100
[8]; Rate 32 g/ha
  Plant response rating, Com. chickweed: 100
[8]; Rate 64 g/ha
  Plant response rating, Com. chickweed: 100
[8]; Rate 125 g/ha
  Plant response rating, Com. chickweed: 100
[8]; Rate 250 g/ha
  Plant response rating, Com. chickweed: 100
B. signalgrass; Rate 32 g/ha
  Plant response rating, B. signalgrass: 65
B. signalgrass; Rate 64 g/ha
  Plant response rating, B. signalgrass: 100
B. signalgrass; Rate 125 g/ha
  Plant response rating, B. signalgrass: 100
B. signalgrass; Rate 250 g/ha
  Plant response rating, B. signalgrass: 100
[9]; Rate 32 g/ha
  Plant response rating, A. bluegrass: 80
[9]; Rate 64 g/ha
  Plant response rating, A. bluegrass: 100
[9]; Rate 125 g/ha
  Plant response rating, A. bluegrass: 100
[9]; Rate 250 g/ha
  Plant response rating, A. bluegrass: 100
[10]; Rate 32 g/ha
  Plant response rating, Green foxtail: 90
[10]; Rate 64 g/ha
  Plant response rating, Green foxtail: 100
[10]; Rate 125 g/ha
  Plant response rating, Green foxtail: 100
[10]; Rate 250 g/ha
  Plant response rating, Green foxtail: 100
[11]; Rate 250 g/ha
  Plant response rating, Sandbur: 100
[11]; Rate 500 g/ha
  Plant response rating, Sandbur: 100
[12]; Rate 32 g/ha
  Plant response rating, Quackgrass: 20
[12]; Rate 64 g/ha
  Plant response rating, Quackgrass: 90
[12]; Rate 125 g/ha
  Plant response rating, Quackgrass: 100
[12]; Rate 250 g/ha
  Plant response rating, Quackgrass: 100
[13]; Rate 32 g/ha
  Plant response rating, Arrowleaf sida: 98
[13]; Rate 64 g/ha
  Plant response rating, Arrowleaf sida: 100
[13]; Rate 125 g/ha
  Plant response rating, Arrowleaf sida: 100
[13]; Rate 250 g/ha
  Plant response rating, Arrowleaf sida: 100
[14]; Rate 64 g/ha
  Plant response rating, Spanishneedles: 100
[14]; Rate 125 g/ha
  Plant response rating, Spanishneedles: 100
[14]; Rate 250 g/ha
  Plant response rating, Spanishneedles: 100
[14]; Rate 500 g/ha
  Plant response rating, Spanishneedles: 100
[15]; Rate 35 g/ha
  Plant response rating, Giant foxtail: 0
[15]; Rate 70 g/ha
  Plant response rating, Giant foxtail: 5
[15]; Rate 140 g/ha
  Plant response rating, Giant foxtail: 100
[16]; Rate 35 g/ha
  Plant response rating, Surinam grass: 0
[16]; Rate 70 g/ha
  Plant response rating, Surinam grass: 10
[16]; Rate 140 g/ha
  Plant response rating, Surinam grass: 35
[17]; Rate 35 g/ha
  Plant response rating, Cotton: 0
[17]; Rate 70 g/ha
  Plant response rating, Cotton: 5
[17]; Rate 140 g/ha
  Plant response rating, Cotton: 15
Corn (Zea mays); Rate 35 g/ha
  Plant response rating, Corn: 0
Corn (Zea mays); Rate 70 g/ha
  Plant response rating, Corn: 0
Corn (Zea mays); Rate 140 g/ha
  Plant response rating, Corn: 30
